Measured values from US9115148B2, “Spirocyclic derivatives as histone deacetylase inhibitors” (DAC S.R.L., priority 2008, dated 2015).

What was measured:
[1] = system: K562 cells; test: Cell growth, CellTiter-Glo Luminescent Cell Viability Assay, K562; format: cell-based; conditions: Homo sapiens, 72 h incubation, read-out: IC50 antiproliferative assay K562
From the text: (§1) CellTiter-Glo® Luminescent Cell Viability Assay (Promega) is a homogeneous method of determining the number of viable cells in culture based on quantitation of the present ATP, which indicates the presence of metabolically active cells. The homogeneous assay procedure involves addition of a single reagent (CellTiter-Glo® Reagent) directly to the cells, which leads to cell lysis and generation of a luminescent signal proportional to the amount of the ATP and the number of cells present in culture. The assay relies on the properties of a proprietary thermostable luciferase (Ultra-Glo® recombinant luciferase), which generates a luminescent signal.
(§2) K562, A549 and HCT-116 cells, in exponential growth, were incubated for 72 h with different concentrations of the inhibitors. After 72 h, a volume of CellTiter-Glo® Reagent equal to the volume of cell culture medium was added. The content was mixed for 2 min to induce cell lysis. The luminescence was recorded after further 10 min at RT in order to obtain a stabilized luminescent signal.
(§3) The IC50 was calculated using GraphPad Software.
(§4) IC50 results were allocated to one of 3 ranges as follows: Range A: IC50≦1.0 μM; Range B: from 1.0 to 3.0 μM; Range C: IC50≧3.0 μM.

[2] = system: HCT-116 cells; test: Cell growth, CellTiter-Glo Luminescent Cell Viability Assay, HCT-116; format: cell-based; conditions: Homo sapiens, HCT116 cells, 72 h incubation, read-out: IC50 antiproliferative assay HCT116
From the text: as §1, §2, §3, §4

[3] = system: A549 cells; test: Cell growth, CellTiter-Glo Luminescent Cell Viability Assay, A549; format: cell-based; conditions: Homo sapiens, 72 h incubation, read-out: IC50 antiproliferative assay A549
From the text: as §1, §2, §3, §4

[4] = system: HDAC (nuclear fraction of Hela cells); test: Assay of enzyme inhibition of HDAC (BIOMOL Kit); format: biochemical; conditions: substrate 200 μM, 15 min at RT
Protocol: 2.2 Assay of Enzyme Inhibition of HDAC
The in-vitro activity of HDAC inhibitors was assayed using a BIOMOL Kit, according to the instructions from the manufacturer (Biomolecular Research Laborator). 15 μl of 30× diluted nuclear fraction of Hela cells, was diluted to 50 μl with the assay buffer containing the HDAC inhibitor and the substrate (lysine with acetylated amino group on the side chain) at a concentration of 200 μM. The samples were incubated for 15 min at RT and then exposed to a developer (10 min at RT). In this last step a fluorophore was produced, whose fluorescence was measured using an excitation wavelength of 355 nm and an emission at 460 nm. The IC50 was calculated using GraphPad Software.

Row | IC50 [1] [nM] | IC50 [2] [nM] | IC50 [3] [nM] | IC50 [4] [nM] | SMILES
1 | ≤ 1000 | 1000 to 3000 | 1000 to 3000 | 100 to 1000 | Cc1ccccc1CN1CCC2(CC1)CC(=O)c1cc(/C=C/C(=O)NO)ccc1O2 [Example 28, (E)-3-{1′-(2-Methyl-benzyl)-4-oxo-spiro[chromane-2,4′-piperidine]-6-yl}-N-hydroxy-acrylamide]
2 | 1000 to 3000 | ≤ 1000 | 1000 to 3000 | 100 to 1000 | O=C(/C=C/c1ccc2c(c1)C(=O)C1(CCNCC1)O2)NO [Example 20, (E)-3-{3-oxo-spiro[benzofuran-2(3H), 4′-piperidin]-5-yl}-N-hydroxy-acrylamide]
3 | ≥ 3000 | ≥ 3000 | ≥ 3000 | > 1000 | CC(=O)NC1CC2(CCN(Cc3ccccc3)CC2)Oc2ccc(/C=C/C(=O)NO)cc21 (centres unmarked) [Example 16, (E)-3-{1′-Benzyl-4-acetylamino-spiro[chromane-2,4′-piperidine]-6-yl}-N-hydroxy-acrylamide]
4 | 1000 to 3000 | ≤ 1000 | 1000 to 3000 | 100 to 1000 | O=C(/C=C/c1ccc2c(c1)C(=O)CC1(CCN(Cc3cccnc3)CC1)O2)NO [Example 41, (E)-3-{1′-(Pyridin-3-ylmethyl)-4-oxo-spiro[chromane-2,4′-piperidine]-6-yl}-N-hydroxy-acrylamide]
5 | ≤ 1000 | ≤ 1000 | ≤ 1000 | < 100 | Cc1[nH]c2ccccc2c1CN1CCC2(CC1)CC(=O)c1cc(/C=C/C(=O)NO)ccc1O2 [Example 51, (E)-3-{1′-(2-Methyl-1H-indol-3-ylmethyl)-4-oxo-spiro[chromane-2,4′-piperidine]-6-yl}-N-hydroxy-acrylamide]
6 | ≤ 1000 | ≤ 1000 | ≤ 1000 | < 100 | O=C(/C=C/c1ccc2c(c1)C(=O)CC1(CCN(CCc3ccc(F)cc3)CC1)O2)NO [Example 56, (E)-3-{1′-[2-(4-Fluoro-phenyl)-ethyl]-4-oxo-spiro[chromane-2,4′-piperidine]-6-yl}-N-hydroxy-acrylamide]
7 | 1000 to 3000 | 1000 to 3000 | ≥ 3000 | 100 to 1000 | O=C(/C=C/c1ccc2c(c1)C(=O)CC1(CCN(S(=O)(=O)c3ccccc3)CC1)O2)NO [Example 44, (E)-3-{1′-Phenylsulfonyl-4-oxo-spiro[chromane-2,4′-piperidine]-6-yl}-N-hydroxy-acrylamide]
8 | ≤ 1000 | ≤ 1000 | 1000 to 3000 | 100 to 1000 | O=C(/C=C/c1ccc2c(c1)C(=O)CC1(CCN(CCCc3ccccc3)CC1)O2)NO [Example 45, (E)-3-{1′-(3-Phenyl-propyl)-4-oxo-spiro[chromane-2,4′-piperidine]-6-yl}-N-hydroxy-acrylamide]
9 | ≤ 1000 | ≤ 1000 | ≤ 1000 | < 100 | CNc1ccc(CCN2CCC3(CC2)CC(=O)c2cc(/C=C/C(=O)NO)ccc2O3)cc1 [Example 63, (E)-3-{1′-[2-(4-Methylamino-phenyl)-ethyl]-4-oxo-spiro[chromane-2,4′-piperidine]-6-yl}-N-hydroxy-acrylamide]
10 | – | – | – | 100 to 1000 | O=C(/C=C/c1ccc2c(c1)C(=O)CC1(CCN(Cc3cnc4ccccc4c3)CC1)O2)NO [Example 66, (E)-3-{1′-(Quinolin-3-ylmethyl)-4-oxo-spiro[chromane-2,4′-piperidine]-6-yl}-N-hydroxy-acrylamide]
11 | – | – | – | < 100 | O=C(/C=C/c1ccc2c(c1)C(=O)N(Cc1ccccc1)C1(CCNCC1)O2)NO [Example 82, (E)-3-{3,4-Dihydro-3-benzyl-4-oxo-spiro[2H-(1,3)-benzoxazine-2,4′-piperidin]-6-yl}-N-hydroxy-acrylamide]
12 | ≤ 1000 | ≤ 1000 | ≤ 1000 | < 100 | Nc1ccc(CCN2CCC3(CC2)CC(=O)c2cc(/C=C/C(=O)NO)ccc2O3)cc1 [Example 62, (E)-3-{1′-[2-(4-Amino-phenyl)-ethyl]-4-oxo-spiro[chromane-2,4′-piperidine]-6-yl}-N-hydroxy-acrylamide]
13 | 1000 to 3000 | 1000 to 3000 | 1000 to 3000 | 100 to 1000 | O=C(/C=C/c1ccc2c(c1)C(=O)CC1(CCN(Cc3ccccc3Cl)CC1)O2)NO [Example 37, (E)-3-{1′-(2-Chloro-benzyl)-4-oxo-spiro[chromane-2,4′-piperidine]-6-yl}-N-hydroxy-acrylamide]
14 | ≥ 3000 | ≥ 3000 | ≥ 3000 | > 1000 | O=C(/C=C/c1ccc2c(c1)OC1(CCN(Cc3ccccc3)CC1)CC2=O)NO [Example 9, (E)-3-{1′-Benzyl-4-oxo-spiro[chromane-2,4′-piperidine]-7-yl}-N-hydroxy-acrylamide]
15 | 1000 to 3000 | 1000 to 3000 | 1000 to 3000 | 100 to 1000 | Cn1c(CN2CCC3(CC2)CC(=O)c2cc(/C=C/C(=O)NO)ccc2O3)cc2ccccc21 [Example 64, (E)-3-{1′-(1-Methyl-1H-indol-2-ylmethyl)-4-oxo-spiro[chromane-2,4′-piperidine]-6-yl}-N-hydroxy-acrylamide]
16 | ≤ 1000 | ≤ 1000 | ≤ 1000 | < 100 | COc1ccc(CCN2CCC3(CC2)CC(=O)c2cc(/C=C/C(=O)NO)ccc2O3)cc1 [Example 58, (E)-3-{1′-[2-(4-Methoxy-phenyl)-ethyl]-4-oxo-spiro[chromane-2,4′-piperidine]-6-yl}-N-hydroxy-acrylamide]
17 | ≥ 3000 | ≥ 3000 | ≥ 3000 | < 100 | O=C(/C=C/c1ccc2c(c1)C(=O)NC1(CCNCC1)O2)NO [Example 72, (E)-3-{3,4-Dihydro-4-oxo-spiro[2H-(1,3)-benzoxazine-2,4′-piperidin]-6-yl}-N-hydroxy-acrylamide]
18 | ≥ 3000 | ≥ 3000 | ≥ 3000 | 100 to 1000 | CN1C(=O)c2cc(/C=C/C(=O)NO)ccc2OC12CCNCC2 [Example 79, (E)-3-{3,4-Dihydro-3-methyl-4-oxo-spiro[2H-(1,3)-benzoxazine-2,4′-piperidin]-6-yl}-N-hydroxy-acrylamide]
19 | ≥ 3000 | ≥ 3000 | ≥ 3000 | 100 to 1000 | CS(=O)(=O)N1CCC2(CC1)CC(=O)c1cc(/C=C/C(=O)NO)ccc1O2 [Example 43, (E)-3-{1′-Methanesulfonyl-4-oxo-spiro[chromane-2,4′-piperidine]-6-yl}-N-hydroxy-acrylamide]
20 | ≤ 1000 | ≤ 1000 | ≤ 1000 | 100 to 1000 | CC(C)N1CCC2(CC1)CC(=O)c1cc(/C=C/C(=O)NO)ccc1O2 [Example 69, (E)-3-{1′-Isopropyl-4-oxo-spiro[chromane-2,4′-piperidine]-6-yl}-N-hydroxy-acrylamide]
21 | ≥ 3000 | ≥ 3000 | ≥ 3000 | > 1000 | O=C(/C=C/c1ccc2c(c1)OC1(CCNCC1)CC2=O)NO [Example 8, (E)-3-{4-oxo-spiro[chromane-2,4′-piperidine]-7-yl}-N-hydroxy-acrylamide]
22 | 1000 to 3000 | 1000 to 3000 | ≥ 3000 | 100 to 1000 | O=C(/C=C/c1ccc2c(c1)C(=O)CC1(CCN(C(=O)c3ccccc3)CC1)O2)NO [Example 4, (E)-3-{1′-Benzoyl-4-oxo-spiro[chromane-2,4′-piperidine]-6-yl}-N-hydroxy-acrylamide]
23 | – | – | – | < 100 | Cc1ccc(CCN2CCC3(CC2)CC(=O)c2cc(/C=C/C(=O)NO)ccc2O3)cc1 [Example 61, (E)-3-{1′-[2-(4-Methyl-phenyl)-ethyl]-4-oxo-spiro[chromane-2,4′-piperidine]-6-yl}-N-hydroxy-acrylamide]
24 | – | – | – | < 100 | O=C(/C=C/c1ccc2c(c1)C(=O)CC1(CCN(Cc3ccc4ccccc4n3)CC1)O2)NO [Example 65, (E)-3-{1′-(Quinolin-2-ylmethyl)-4-oxo-spiro[chromane-2,4′-piperidine]-6-yl}-N-hydroxy-acrylamide]
25 | – | – | – | 100 to 1000 | O=C(/C=C/c1ccc2c(c1)C(=O)CC1(CCN(Cc3ccccc3-c3ccccc3)CC1)O2)NO [Example 67, (E)-3-{1′-(Biphenyl-2yl-methyl)-4-oxo-spiro[chromane-2,4′-piperidine]-6-yl}-N-hydroxy-acrylamide]
26 | – | – | – | 100 to 1000 | O=C(/C=C/c1ccc2c(c1)C(=O)CC1(CCN(C3CCCC3)CC1)O2)NO [Example 70, (E)-3-{1′-Cyclopentyl-4-oxo-spiro[chromane-2,4′-piperidine]-6-yl}-N-hydroxy-acrylamide]
